Assay results: ChEMBL document CHEMBL3272295, “Drugs derived from cannabinoids. 5. delta6a,10a-Tetrahydrocannabinol and heterocyclic analogs containing aromatic side chains” (J Med Chem, 1976)
The source made the active and inactive calls. The calls are words filed in the database; no cut-off is given here.

Legend:
Rattus norvegicus [1] = assay: Analgesic activity in po dosed Sprague-Dawley rat after 15 to 90 mins by tail flick test; type: functional
Mus musculus [2] = assay: Analgesic activity in po dosed mouse assessed as inhibition of acetic acid-induced writhing administered 30 mins prior to acetic acid challenge measured after 5 mins for 20 mins; type: functional
Rattus norvegicus [3] = assay: Antipsychotic activity in rat assessed as reduction of methamphetamine-induced hyperactivity at 5 mg/kg, po administered prior to methamphetamine challenge relative to vehicle-treated control; type: functional; set-up: scale not given: the % may be the effect or the level left
Mus musculus [4] = assay: Antianxiety activity in albino BALB/cJ mouse assessed as reduction in footshock-induced fighting behavior at 10 mg/kg, po after 30 to 90 mins; type: functional; set-up: scale not given: the % may be the effect or the level left
[5] = Acute toxicity in po dosed mouse; type: organism-based; details: in vivo
Rattus norvegicus [6] = assay: Antianxiety activity in Long-Evans rat assessed as reduction in motor activity at 5 mg/kg, po after 2 hrs relative to vehicle-treated control; type: functional; set-up: scale not given: the % may be the effect or the level left
Rattus norvegicus [7] = assay: Antipsychotic activity in rat assessed as reduction of methamphetamine-induced hyperactivity at 2 mg/kg, po administered prior to methamphetamine challenge relative to vehicle-treated control; type: functional; set-up: scale not given: the % may be the effect or the level left
Felis catus [8] = assay: Hypnotic activity in cat assessed as increase in non-REM sleep time at 0.5 mg/kg administered orally through diet measured for 12 hrs by EEG analysis; type: functional; details: route oral
Canis familiaris = assay: Antianxiety activity in po dosed dog assessed as ataxia administered as single dose measured up to 24 hrs; type: functional; details: Canis lupus familiaris, read-out: MED
Felis catus [9] = assay: Hypnotic activity in cat assessed as increase in total sleep time at 0.5 mg/kg administered orally through diet measured for 12 hrs by EEG analysis; type: functional; details: route oral
Mus musculus [10] = assay: Anticonvulsant activity in po dosed mouse assessed as dose required to protect 80% of animal measured after 1 to 4 hrs by audiogenic seizure test; type: functional
Rhesus monkey = assay: Antianxiety activity in po dosed rhesus monkey assessed as antiagressive behavior measured every hour post dosing; type: functional; details: Macaca mulatta, read-out: MED
Rattus norvegicus [11] = assay: Antihypertensive activity in spontaneously hypertensive rat model assessed as reduction in blood pressure at 1 mg/kg, po after 3 hrs; type: functional; set-up: scale not given: the % may be the effect or the level left
Rattus norvegicus [12] = assay: Antihypertensive activity in spontaneously hypertensive rat model assessed as reduction in blood pressure at 1 mg/kg, po after 24 hrs; type: functional; set-up: scale not given: the % may be the effect or the level left
Rattus norvegicus [13] = assay: Antihypertensive activity in spontaneously hypertensive rat model assessed as reduction in blood pressure at 3 mg/kg, po after 3 hrs; type: functional; set-up: scale not given: the % may be the effect or the level left
Rattus norvegicus [14] = assay: Antipsychotic activity in rat assessed as reduction of methamphetamine-induced hyperactivity at 10 mg/kg, po administered prior to methamphetamine challenge relative to vehicle-treated control; type: functional; set-up: scale not given: the % may be the effect or the level left
Mus musculus [15] = assay: Analgesic activity in mouse assessed as inhibition of acetic acid-induced writhing at 10 mg/kg, po administered 30 mins prior to acetic acid challenge measured after 5 mins for 20 mins; type: functional
Rattus norvegicus [16] = assay: Antihypertensive activity in spontaneously hypertensive rat model assessed as reduction in blood pressure at 3 mg/kg, po after 24 hrs; type: functional; set-up: scale not given: the % may be the effect or the level left
Rattus norvegicus [17] = assay: Antipsychotic activity in rat assessed as reduction of methamphetamine-induced hyperactivity at 20 mg/kg, po administered prior to methamphetamine challenge relative to vehicle-treated control; type: functional; set-up: scale not given: the % may be the effect or the level left
Rattus norvegicus [18] = species: Rattus norvegicus; assay: animal or person; type: functional; details: Charles River, route oral
Description: Antidiarrheal activity in Charles River rat assessed as inhibition of castor oil-induced diarrhea by measuring protected animals at 0.5 mg/kg, po administered 1 hr prior to castor oil challenge measured after 1 hr relative to vehicle-treated control

For `CC(CCc1ccc(F)cc1)C(C)c1cc(O)c2c3c(c(=O)oc2c1)CCN(Cc1ccccc1)C3` (stereo not given), the Activity (Rattus norvegicus [1]) was “inactive” and the inhibition (Mus musculus [2]) was “inactive”.

In the case of `CC(CCCc1ccc(F)cc1)C(C)c1cc(O)c2c(c1)OC(C)(C)C1=C2CNCC1` (stereo not given), the Activity (Rattus norvegicus [1]) is reported as “inactive” and the inhibition (Mus musculus [2]) is reported as “inactive”.

With `CC1CCc2c(c3c(O)cc(C(C)CCCc4ccc(F)cc4)cc3oc2=O)C1` (stereo not given) the Activity (Rattus norvegicus [1]) was “inactive” and the inhibition (Mus musculus [2]) was “inactive”.

For `Cc1ccc(CCCC(C)c2cc(O)c3c(c2)OC(C)(C)C2=C3CNCC2)cc1` (stereo not given), the Activity (Rattus norvegicus [1]) was “inactive” and the inhibition (Mus musculus [2]) was “inactive”.

In the case of `CC1CCc2c(c3c(O)cc(C(C)C(C)Cc4ccc(F)cc4)cc3oc2=O)C1` (stereo not given), the Activity (Rattus norvegicus [1]) is reported as “inactive” and the inhibition (Mus musculus [2]) is reported as “inactive”.

For `C#CCN1CCC2=C(C1)c1c(OC(=O)CCCN3CCOCC3)cc(C(C)CCCc3ccc(F)cc3)cc1OC2(C)C.Cl.Cl` (stereo not given), the Activity (Rattus norvegicus [3]) was 33%, the ED50 (Rattus norvegicus [1]) was 5 mg/kg and the Activity (Mus musculus [4]) was 0%. For the same molecule, the LD50 [5] was no less than 1000 mg/kg, the Activity (Rattus norvegicus [6]) was 48% and the ED50 (Mus musculus [2]) was 9 mg/kg.

With `CC(CCCc1ccc(F)cc1)c1cc(O)c2c3c(c(=O)oc2c1)CCN(Cc1ccccc1)C3` (stereo not given) the Activity (Rattus norvegicus [1]) was “inactive” and the inhibition (Mus musculus [2]) was “inactive”.

In the case of `CC(CCCc1ccc(F)cc1)C(C)c1cc(O)c2c3c(c(=O)oc2c1)CCN(Cc1ccccc1)C3` (stereo not given), the Activity (Rattus norvegicus [1]) is reported as “inactive” and the inhibition (Mus musculus [2]) is reported as “inactive”.

With `CC(CCCCc1ccc(F)cc1)c1cc(O)c2c3c(c(=O)oc2c1)CCN(Cc1ccccc1)C3` (stereo not given) the Activity (Rattus norvegicus [1]) was “inactive” and the inhibition (Mus musculus [2]) was “inactive”.

In the case of `CC1CCc2c(c3c(O)cc(C(C)C(C)CCc4ccc(F)cc4)cc3oc2=O)C1` (stereo not given), the Activity (Rattus norvegicus [1]) is reported as “inactive” and the inhibition (Mus musculus [2]) is reported as “inactive”.

In the case of `CC1CCc2c(c3c(O)cc(C(C)CCCc4ccccc4)cc3oc2=O)C1` (stereo not given), the Activity (Rattus norvegicus [1]) is reported as “inactive” and the inhibition (Mus musculus [2]) is reported as “inactive”.

`C#CCN1CCC2=C(C1)c1c(OC(=O)C(C)CCN3CCOCC3)cc(C(C)CCCc3ccc(F)cc3)cc1OC2(C)C.Cl` (stereo not given) showed an Activity (Rattus norvegicus [3]) of 24%, an ED50 (Rattus norvegicus [1]) of 7 mg/kg and an Activity (Mus musculus [4]) of 26%. The LD50 [5] was no less than 1000 mg/kg, the Activity (Rattus norvegicus [6]) was 71% and the ED50 (Mus musculus [2]) was 7.2 mg/kg.

In the case of `CC1CCc2c(c3c(O)cc(C(C)CCCN(C)C)cc3oc2=O)C1` (stereo not given), the Activity (Rattus norvegicus [1]) is reported as “inactive” and the inhibition (Mus musculus [2]) is reported as “inactive”.

With `CC1CCc2c(c3c(O)cc(C(C)CCCCc4ccc(F)cc4)cc3oc2=O)C1` (stereo not given) the Activity (Rattus norvegicus [1]) was “inactive” and the inhibition (Mus musculus [2]) was “inactive”.

For `CC(CCCc1ccc(F)cc1)C(C)c1cc(O)c2c(c1)OC(C)(C)C1=C2CN(Cc2ccccc2)CC1` (stereo not given), the Activity (Rattus norvegicus [1]) was “inactive” and the inhibition (Mus musculus [2]) was “inactive”.

For `CC(CCCCc1ccc(F)cc1)c1cc(O)c2c(c1)OC(C)(C)C1=C2CN(Cc2ccccc2)CC1` (stereo not given), the Activity (Rattus norvegicus [1]) was “inactive” and the inhibition (Mus musculus [2]) was “inactive”.

For `CC(CCCc1ccc(F)cc1)c1cc(O)c2c(c1)OC(C)(C)C1=C2CN(Cc2ccccc2)CC1` (stereo not given), the Activity (Rattus norvegicus [1]) was “inactive” and the inhibition (Mus musculus [2]) was “inactive”.

Work on `CC1CCC2=C(C1)c1c(O)cc(C(C)CCCc3ccccc3)cc1OC2(C)C` (stereo not given) yielded an Activity (Rattus norvegicus [7]) of 46%, a Time (Felis catus [8]) of 2 min and a minimal effective dose (Canis familiaris) of 1 mg/kg. The Time (Felis catus [9]) was 28 min, the Activity (Rattus norvegicus [3]) was 77% and the Activity (Mus musculus [10]) was 30 mg/kg. It also gave an Activity (Mus musculus [4]) of 77%, an LD50 [5] of 750 mg/kg and a minimal effective dose (Rhesus monkey) of 0.5 mg/kg. For the same molecule, the Activity (Rattus norvegicus [6]) was 36% and the ED50 (Mus musculus [2]) was 17 mg/kg.

In the case of `CC(CCc1ccc(F)cc1)c1cc(O)c2c3c(c(=O)oc2c1)CCN(Cc1ccccc1)C3` (stereo not given), the Activity (Rattus norvegicus [1]) is reported as “inactive” and the inhibition (Mus musculus [2]) is reported as “inactive”.

For `CC1CCC2=C(C1)c1c(O)cc(C(C)C(C)Cc3ccc(F)cc3)cc1OC2(C)C` (stereo not given), the Activity (Rattus norvegicus [11]) was 22%, the Activity (Rattus norvegicus [12]) was 9% and the Activity (Rattus norvegicus [13]) was 21%. It also gave an Activity (Mus musculus [4]) of 4%, an LD50 [5] of no less than 1000 mg/kg and an Activity (Rattus norvegicus [14]) of 28%. For the same molecule, the inhibition in vivo at 10 mg/kg (Mus musculus [15]) was 38%, the Activity (Rattus norvegicus [6]) was 66% and the Activity (Rattus norvegicus [16]) was 24%. The Activity (Rattus norvegicus [17]) was 56%.

In the case of `Cc1ccc(CCCC(C)c2cc(O)c3c4c(c(=O)oc3c2)CCN(Cc2ccccc2)C4)cc1` (stereo not given), the Activity (Rattus norvegicus [1]) is reported as “inactive” and the inhibition (Mus musculus [2]) is reported as “inactive”.

In the case of `CC1CCc2c(c3c(O)cc(C(C)C(C)CCc4ccncc4)cc3oc2=O)C1` (stereo not given), the Activity (Rattus norvegicus [1]) is reported as “inactive” and the inhibition (Mus musculus [2]) is reported as “inactive”.

Work on `Cc1ccc(CCCC(C)c2cc(O)c3c(c2)OC(C)(C)C2=C3CC(C)CC2)cc1` (stereo not given) yielded an Activity (Rattus norvegicus [11]) of 0%, an Activity (Rattus norvegicus [12]) of 0% and an Activity (Rattus norvegicus [13]) of 26%. For the same molecule, the Activity (Rattus norvegicus [3]) was 66%, the Activity (Mus musculus [4]) was 10% and the LD50 [5] was no less than 1000 mg/kg. The inhibition in vivo at 10 mg/kg (Mus musculus [15]) was 30%, the inhibition in vivo at 0.5 mg/kg (Rattus norvegicus [18]) was 90% and the Activity (Rattus norvegicus [6]) was 16%. For the same molecule, the Activity (Rattus norvegicus [16]) was 16% and the Activity (Rattus norvegicus [17]) was 72%.
